# Test results: patent US9453226B2, “Protection of cells from Alu-RNA-induced degeneration and inhibitors for protecting cells” (UNIVERSITY OF KENTUCKY RESEARCH FOUNDATION, priority 2011, dated 2016)
# Read-outs that look alike come from different tables or passages of the source.
# Columns and labels:
# RPE = assay: AAV1-BEST1-Cre-induced RPE degeneration in Dicer1 f/f mice; format: in vivo; conditions: peptide intravitreous
# Protocol: Subretinal injections (1 μL) in mice were performed using a Pico-Injector (PLI-100, Harvard Apparatus). In vivo transfection of plasmids coding for two different Alu sequences (pAlu) or empty control vector (pNull) (Bennett et al., 2008; Kaneko et al., 2011; Shaikh et al., 1997) was achieved using 10% Neuroporter (Genlantis). AAV1-BEST1-Cre (Alexander and Hauswirth, 2008) or AAV1-BEST1-GFP were injected at 1.0×10^11 pfu/mL and in vitro transcribed Alu RNA was injected at 0.3 mg/mL. […]
# human RPE cells [1] = conditions: human RPE cells transfected with pAlu
# Protocol: All cell cultures were maintained at 37° C. and 5% CO2. Primary mouse RPE cells were isolated as previously described (Yang et al., 2009) and grown in Dulbecco Modified Eagle Medium (DMEM) supplemented with 20% FBS and standard antibiotics concentrations. Primary human RPE cells were isolated as previously described (Yang et al., 2008) and maintained in DMEM supplemented with 10% FBS and antibiotics. HeLa cells were maintained in DMEM supplemented with 20% FBS and standard antibiotics concentrations. THP-1 cells were cultured in RPMI 1640 medium supplemented with 10% FBS and antibiotics.
# MTS assays were performed using the CellTiter 96 AQueous One Solution Cell Proliferation Assay (Promega) according to the manufacturer's instructions. For examining the cytoprotective effect of glycine in Alu RNA induced cell death, human RPE cells were transfected with pNull/pAlu. At 6 h post-transfection the cells were incubated with complete media containing glycine (5 mM) or vehicle, and cell viability was assessed after 24 h. Similarly, human RPE cells primed with LPS (5 μg/ml for 6 h) were treated with ATP (25 μM) in the presence of glycine containing media (5 mM). 30 min post ATP cell viability was assessed as described above.
# MTS assays were performed using the CellTiter 96 AQueous One Solution Cell Proliferation Assay (Promega) according to the manufacturer's instructions.
# Caspase-1 = biological target: T1, Caspase-1 (Homo sapiens, UniProt P29466); assay: Caspase-1 activation in human RPE cells (Western blot p20, Caspalux substrate cleavage); format: cell-based; conditions: for Alu RNA-induced Caspase-1 substrate cleavage: Caspalux fluorescent substrate
# T1 construct: Primary human RPE cells were isolated as previously described; endogenous in cells; host or cells: primary human RPE cells
# T1 sequence (P29466 120-297 limits assumed): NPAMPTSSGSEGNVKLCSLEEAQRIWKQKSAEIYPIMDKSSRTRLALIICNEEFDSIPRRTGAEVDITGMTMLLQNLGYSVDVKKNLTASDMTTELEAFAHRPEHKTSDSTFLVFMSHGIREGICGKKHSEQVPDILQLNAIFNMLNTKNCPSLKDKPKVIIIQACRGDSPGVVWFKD
# T1 sequence (P29466 317-404 limits assumed): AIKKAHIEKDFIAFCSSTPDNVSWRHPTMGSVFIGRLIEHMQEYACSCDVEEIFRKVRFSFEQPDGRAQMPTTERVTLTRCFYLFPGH
# Protocol: Protein abundance was assessed by Western blot analysis using antibodies against Caspase-1 (1:500; Invitrogen), pIRAK1 (1:500; Thermo Scientific), pIRAK4 (1:500, Abbomax), PYCARD (1:200, Santa Cruz Biotechnology), NLRP3 (1:500, Enzo Life Sciences) and Vinculin (1:1,000; Sigma-Aldrich). Caspase-1 activity was visualized using Caspalux1 E1D2 (Oncolmmunin) according to manufacturer's instructions.
# Tissues or cells were homogenized in lysis buffer (10 mM Tris base, pH 7.4, 150 mM NaCl, 1 mM EDTA, 1 mM EGTA, 1% Triton X-100, 0.5% NP-40, protease and phosphatase inhibitor cocktail (Roche)). Protein concentrations were determined using a Bradford assay kit (Bio-Rad) with bovine serum albumin as a standard. Proteins (40-100 μg) were run on NuPAGE Bis-Tris gels (Invitrogen) and transferred to Immun-Blot PVDF membranes (Bio-Rad). Cells were scraped in hot Laemmli buffer (62.5 mM Tris base, pH 6.8, 2% SDS, 5% 2-Mercaptoethanol, 10% Glycerol, 0.01% Bromophenol Blue). Samples were boiled and run on 4-20% NuPAGE Tris-Glycine gels (Invitrogen). The transferred membranes were blocked for 1 h at RT and incubated with antibodies against human Caspase-1 (1:500; Invitrogen), mouse Caspase 1 (1:500; MBL), NLRP3 (1:1000; Enzo Life Sciences), PYCARD (1:1000, RayBiotech), phospho-IRAK1 (S376) (1:500, Thermo Scientific), phospho-IRAK4 (T345) (1:500, AbboMax), DICER1 (1:2,000; Bethyl), MyD88 (1:1,000; Cell Signaling), and mouse IL-18 (1:200; MBL) at 4° C. overnight. Protein loading was assessed by immunoblotting using an anti-Vinculin antibody (1:1,000; Sigma-Aldrich). The secondary antibodies were used (1:5,000) for 1 h at RT. The signal was visualized by enhanced chemiluminescence (ECL plus) and captured by VisionWorksLS Image Acquisition and Analysis software (Version 6.7.2, UVP, LLC).
# Caspase-1 activity. Caspase-1 activity was visualized by incubating cells with Caspalux1E1D2 reagent (Oncolmmunin) according to the manufacturer's instructions. Caspalux1E1D2 signal was quantified reading the fluorescence (excitation 552 nm, emission 580 nm) using a Synergy 4 reader (Biotek). Quantification of fluorescence from images was performed by converting images into grayscale in Adobe Photoshop CSS, and measuring the integrated density of black and white images using ImageJ software (NIH) (Bogdanovich et al., 2008).
# human RPE cells [2] = assay: Loss of human RPE cell viability induced by DICER1 antisense; format: cell-based
Substance,AAV1-BEST1-Cre-induced RPE degeneration (RPE),pAlu-induced human RPE cell death / loss of cell viability (human RPE cells [1]; listed as MyD88-inhibitory peptide),pAlu-induced human RPE cell death / loss of cell viability (human RPE cells [1]; listed as MyD88i),Alu RNA-induced Caspase-1 substrate cleavage (Caspase-1),Alu RNA-induced Caspase-1 activation (p20 subunit) (Caspase-1; Western blot),loss of human RPE cell viability induced by DICER1 antisense (AS) (human RPE cells [2]),Alu RNA-induced Caspase-1 substrate cleavage (Caspase-1; listed as Caspase-1-inhibitory peptide),Alu RNA-induced Caspase-1 substrate cleavage (Caspase-1; listed as Caspase-1 inhibitor peptide)
DRQIKIWFQNRRMKWKKRDVLPGT [MyD88 inhibitory peptide],blocked,inhibited cell death,rescued,does not reduce,unaffected,rescues,,
Z-WEHD-FMK,blocked,,,,,,blocked Alu RNA-induced substrate cleavage,blocks
